Here are results for 1 compound from patent US7179921B2, “Indoline and tetrahydro-quinolines as prodrugs for tumour treatment” (School of Pharmacy, University of London, priority 2001, dated 2007).

In the series the test system is Chinese Hamster Ovary (CHO) cell. Kind of series: Cell culture based cytotoxicity measurement (MTT) with and without rat liver microsomal activation. As to conditions: for IC50: Cricetulus griseus, CHO, cells incubated 24 hours, MTT, mean±sd, three experiments. The method, then: Test compound activation by CYP enzymes was carried out using NADPH supplemented rat liver microsomes. Incubation mixtures comprised microsomal protein (1 mg/ml), reduced-nicotinamide adenine dinucleotide phosphate (NADPH,10 mM) and phosphate buffer (pH7.4, 100 mM). Test compound (0.01–100 μM final concentration) in DMSO (20 μl ) was added to the microsomal incubation mixtures (0.5 ml) and incubated for 60 min at 37C. Control incubates contained test compound and microsomal incubation mixture terminated at 0 time. All incubations were terminated by addition of an equal volume of ice-cold acetonitrile and microfuged for 3 min. Aliquots of the supernatant were added to cells in culture.
Chinese Hamster Ovary (CHO) cell were grown in MEM supplemented with 10% dialysed FBS and G418 (400 μg/ml). All cells were seeded at an initial density of 1000 cells/well in 96-well-plates, incubation at 37° C. for 24 hours. Aliquots (0.1 ml) of the test compound/microsomal/acetonitrile supernatnant was then added to the CHO cells. Cells were then incubated for 24 hours at 37° C., 5% CO2. After this time period MTT (50 μl; 2 mg/ml stock solution) was added to each well and cells were incubated for a further 4 hours. During this time period MTT, a hydrogen acceptor tetrazolium salt, is reduced to formazan dye by mitochondrial dehydrogenase of viable cells. The media was aspirated from cells and DMSO (100 μl/well) added to solubilise the is coloured formazan dye. Absorbance of the formazan dye in the 96-well-plates was then determined at 550 nm. The effect of microsomal activation by the test compound on the arrest of CHO cell growth could be determined by comparing the IC50 (concentration that inhibited cell growth by 50%) with and without microsomal incubation.
Effect of compound 3.5 and its metabolism (activation) product on the survival of Chinese hamster ovary cells in culture. Cells were incubated for 24 hours with supernatants from reaction mixtures of compound 3.5 with NADPH fortified rat liver microsomes. […] Values are expressed as the mean±sd for three experiments. […]

Structures are written as SMILES. Marks after values point to notes of the source that are not given here.

The IC50 is the midpoint of a concentration-inhibition curve. A lower IC50 goes with greater potency. In the case of `COc1ccc2[nH]c(C(=O)N3CC(CCl)c4ccccc43)cc2c1` (stereo not drawn) [compound 3.5, 3-(Chloromethyl)-1--[(5-methoxyindol-2-yl)carbonyl]indoline], where the note is “CHO cells, IC50 −activation / IC50 +activation”, the “AF = activity factor, ratio of IC50 cytotoxicity values obtained for ± compound activation” value is 42.4*. For the same compound, the IC50 worked out at 5510 ± 230 nM (control incubate terminated at 0 time (no microsomal activation)) and 130 ± 30 nM (supernatant after 60 min incubation with NADPH supplemented rat liver microsomes).
